# Assay results taken from patent US20250382332A1, “NOVEL ALPHA-FACTOR BASED PEPTIDES WITH ANTIFUNGAL ACTIVITY” (INVAIO SCIENCES, INC., priority 2024, published 2025).
# Peptide text beside a SMILES is read from it.
# Test system: Botrytis cinerea (B05.10)
# Test: Resazurin antifungal assay of 180 alpha-factor peptide variants towards Botrytis (Example 2)
# Format: cell-based
# Conditions: % inhibition of fungal growth, Botrytis conidia, resazurin; for Inhibition at 50 μM: peptide 50 μM; for Inhibition at 100 μM: peptide 100 μM
# Summary of the method: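 Resazurin viability read-out (570/620 nm fluorescence) after a 24 h, 20° C incubation of B05.10 conidia, 5000 per well, with peptide at final 10-100 μM. Growth inhibition (%) was derived by subtracting conidia-only fluorescence; four replicates per treatment.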
smiles,measurement,value
CSCC[C@H](NC(=O)[C@H](Cc1c[nH]cn1)NC(=O)[C@@H]1CCCN1)C(=O)N[C@H](C(=O)N[C@@H](CCCNC(=N)N)C(=O)N[C@@H](CC(C)C)C(=O)N[C@@H](CCCCN)C(=O)N1CCC[C@H]1C(=O)NCC(=O)N[C@@H](CCC(N)=O)C(=O)N1CCC[C@H]1C(=O)N[C@@H](CCSC)C(=O)N[C@@H](Cc1ccc(O)cc1)C(=O)O)C(C)C [compound 132] (H-PHMVRLKPGQPMY-OH; N-terminus and C-terminus assumed),Inhibition at 50 μM,<90%
same,Inhibition at 100 μM,94.13%
CC[C@H](C)[C@H](NC(=O)[C@H](CC(C)C)NC(=O)[C@H](CCC(N)=O)NC(=O)CNC(=O)[C@H](Cc1c[nH]c2ccccc12)NC(=O)CNC(=O)[C@@H](N)CCCCN)C(=O)N1CCC[C@H]1C(=O)NCC(=O)N[C@@H](CCC(=O)O)C(=O)N1CCC[C@H]1C(=O)N[C@@H](CCSC)C(=O)N[C@@H](Cc1ccc(O)cc1)C(=O)O [compound 133] (H-KGWGQLIPGEPMY-OH; N-terminus and C-terminus assumed),Inhibition at 50 μM,<90%
same,Inhibition at 100 μM,<90%
CSCC[C@H](NC(=O)[C@@H]1CCCN1C(=O)[C@H](CCC(N)=O)NC(=O)CNC(=O)[C@@H]1CCCN1C(=O)[C@H](CCCCN)NC(=O)[C@H](CC(C)C)NC(=O)[C@H](CCCCN)NC(=O)[C@H](CC(C)C)NC(=O)[C@H](CC(=O)O)NC(=O)CNC(=O)[C@@H](N)Cc1c[nH]c2ccccc12)C(=O)N[C@@H](Cc1ccc(O)cc1)C(=O)O [compound 134] (H-WGDLKLKPGQPMY-OH; N-terminus and C-terminus assumed),Inhibition at 50 μM,<90%
same,Inhibition at 100 μM,<90%
CSCC[C@H](NC(=O)[C@@H]1CCCN1C(=O)[C@H](CCC(=O)O)NC(=O)CNC(=O)[C@H](CCCNC(=N)N)NC(=O)[C@H](CCC(N)=O)NC(=O)[C@H](CC(C)C)NC(=O)[C@H](CCC(N)=O)NC(=O)CNC(=O)[C@H](Cc1c[nH]c2ccccc12)NC(=O)[C@H](Cc1c[nH]cn1)NC(=O)[C@@H](N)Cc1c[nH]c2ccccc12)C(=O)N[C@@H](Cc1ccc(O)cc1)C(=O)O [compound 135] (H-WHWGQLQRGEPMY-OH; N-terminus and C-terminus assumed),Inhibition at 50 μM,<90%
same,Inhibition at 100 μM,<90%
CSCC[C@H](NC(=O)[C@@H]1CCCN1C(=O)[C@H](CCC(=O)O)NC(=O)CNC(=O)[C@@H]1CCCN1C(=O)[C@H](CCCCN)NC(=O)[C@H](CC(C)C)NC(=O)[C@H](CCCCN)NC(=O)[C@H](CC(C)C)NC(=O)[C@H](Cc1c[nH]c2ccccc12)NC(=O)[C@H](Cc1c[nH]cn1)NC(=O)[C@@H]1CCCN1)C(=O)N[C@@H](Cc1ccc(O)cc1)C(=O)O [compound 136] (H-PHWLKLKPGEPMY-OH; N-terminus and C-terminus assumed),Inhibition at 50 μM,<90%
same,Inhibition at 100 μM,<90%
CSCC[C@H](NC(=O)[C@H](Cc1c[nH]cn1)NC(=O)[C@@H](N)Cc1c[nH]c2ccccc12)C(=O)NCC(=O)N[C@@H](CCC(N)=O)C(=O)N[C@@H](CC(C)C)C(=O)N[C@@H](CCCCN)C(=O)N1CCC[C@H]1C(=O)NCC(=O)N[C@@H](CCC(=O)O)C(=O)N1CCC[C@H]1C(=O)N[C@@H](CCSC)C(=O)N[C@@H](Cc1ccc(O)cc1)C(=O)O [compound 137] (H-WHMGQLKPGEPMY-OH; N-terminus and C-terminus assumed),Inhibition at 50 μM,<90%
same,Inhibition at 100 μM,<90%
CSCC[C@H](NC(=O)[C@H](CCC(N)=O)NC(=O)[C@@H](N)Cc1c[nH]c2ccccc12)C(=O)N[C@@H](CC(C)C)C(=O)N[C@@H](CCCCN)C(=O)N[C@@H](CC(C)C)C(=O)N[C@@H](CCCCN)C(=O)N[C@@H](Cc1ccc(O)cc1)C(=O)NCC(=O)N[C@@H](CCC(N)=O)C(=O)N1CCC[C@H]1C(=O)N[C@@H](CCSC)C(=O)N[C@@H](Cc1ccc(O)cc1)C(=O)O [compound 138] (H-WQMLKLKYGQPMY-OH; N-terminus and C-terminus assumed),Inhibition at 50 μM,<90%
same,Inhibition at 100 μM,<90%
CC[C@H](C)[C@H](NC(=O)[C@H](CCC(=O)O)NC(=O)CNC(=O)[C@H](Cc1c[nH]c2ccccc12)NC(=O)[C@H](Cc1c[nH]cn1)NC(=O)[C@@H]1CCCN1)C(=O)N[C@@H](CCCCN)C(=O)N1CCC[C@H]1C(=O)NCC(=O)N[C@@H](CCC(N)=O)C(=O)N[C@@H](CO)C(=O)N[C@@H](CCSC)C(=O)N[C@@H](Cc1ccc(O)cc1)C(=O)O [compound 139] (H-PHWGEIKPGQSMY-OH; N-terminus and C-terminus assumed),Inhibition at 50 μM,<90%
same,Inhibition at 100 μM,<90%
CC[C@H](C)[C@H](NC(=O)[C@H](Cc1ccccc1)NC(=O)[C@H](CS)NC(=O)[C@@H](N)CCCCN)C(=O)N[C@@H](CCC(N)=O)C(=O)N[C@@H](CC(C)C)C(=O)N[C@@H](CCCCN)C(=O)N1CCC[C@H]1C(=O)NCC(=O)N[C@@H](CCC(N)=O)C(=O)N1CCC[C@H]1C(=O)N[C@@H](CCSC)C(=O)N[C@@H](Cc1ccc(O)cc1)C(=O)O [compound 140] (H-KCFIQLKPGQPMY-OH; N-terminus and C-terminus assumed),Inhibition at 50 μM,<90%
same,Inhibition at 100 μM,90.65%
CSCC[C@H](NC(=O)[C@@H]1CCCN1C(=O)[C@H](CCC(N)=O)NC(=O)CNC(=O)[C@H](CCCNC(=N)N)NC(=O)[C@H](CCCCN)NC(=O)[C@H](CC(C)C)NC(=O)[C@@H](NC(=O)[C@H](CC(C)C)NC(=O)[C@H](CC(=O)O)NC(=O)[C@H](CCCNC(=N)N)NC(=O)[C@@H]1CCCN1)[C@@H](C)O)C(=O)N[C@@H](Cc1ccc(O)cc1)C(=O)O [compound 141] (H-PRDLTLKRGQPMY-OH; N-terminus and C-terminus assumed),Inhibition at 50 μM,<90%
same,Inhibition at 100 μM,<90%
CC[C@H](C)[C@H](NC(=O)[C@H](CO)NC(=O)[C@H](CC(C)C)NC(=O)CNC(=O)[C@H](Cc1c[nH]cn1)NC(=O)[C@@H]1CCCN1)C(=O)N[C@@H](Cc1ccc(O)cc1)C(=O)N1CCC[C@H]1C(=O)NCC(=O)N[C@@H](CCC(N)=O)C(=O)N1CCC[C@H]1C(=O)N[C@@H](CCSC)C(=O)N[C@@H](Cc1ccc(O)cc1)C(=O)O [compound 142] (H-PHGLSIYPGQPMY-OH; N-terminus and C-terminus assumed),Inhibition at 50 μM,<90%
same,Inhibition at 100 μM,<90%
CSCC[C@H](NC(=O)[C@@H]1CCCN1C(=O)[C@H](CCC(N)=O)NC(=O)CNC(=O)[C@@H]1CCCN1C(=O)[C@H](CCCCN)NC(=O)[C@H](CC(C)C)NC(=O)[C@H](CCC(=O)O)NC(=O)CNC(=O)[C@H](Cc1c[nH]c2ccccc12)NC(=O)[C@H](Cc1c[nH]cn1)NC(=O)[C@@H]1CCCN1)C(=O)N[C@@H](Cc1ccc(O)cc1)C(=O)O [compound 143] (H-PHWGELKPGQPMY-OH; N-terminus and C-terminus assumed),Inhibition at 50 μM,<90%
same,Inhibition at 100 μM,<90%
CSCC[C@H](NC(=O)[C@@H]1CCCN1C(=O)[C@H](CCC(N)=O)NC(=O)CNC(=O)[C@@H]1CCCN1C(=O)[C@H](Cc1ccccc1)NC(=O)[C@H](CC(C)C)NC(=O)[C@H](CCC(N)=O)NC(=O)[C@@H](NC(=O)[C@H](Cc1c[nH]c2ccccc12)NC(=O)[C@H](Cc1c[nH]cn1)NC(=O)[C@@H](N)CCCCN)C(C)C)C(=O)N[C@@H](Cc1ccc(O)cc1)C(=O)O [compound 144] (H-KHWVQLFPGQPMY-OH; N-terminus and C-terminus assumed),Inhibition at 50 μM,<90%
same,Inhibition at 100 μM,99.99%
CSCC[C@H](NC(=O)[C@@H]1CCCN1C(=O)[C@H](CCC(N)=O)NC(=O)CNC(=O)[C@H](CC(N)=O)NC(=O)[C@H](CCCCN)NC(=O)[C@H](Cc1ccccc1)NC(=O)[C@H](CC(N)=O)NC(=O)[C@H](CC(C)C)NC(=O)[C@H](Cc1c[nH]c2ccccc12)NC(=O)[C@H](CCC(=O)O)NC(=O)[C@@H](N)CCCCN)C(=O)N[C@@H](Cc1ccc(O)cc1)C(=O)O [compound 145] (H-KEWLNFKNGQPMY-OH; N-terminus and C-terminus assumed),Inhibition at 50 μM,<90%
same,Inhibition at 100 μM,<90%
CSCC[C@H](NC(=O)[C@@H]1CCCN1C(=O)[C@H](CCC(N)=O)NC(=O)CNC(=O)[C@@H]1CCCN1C(=O)[C@H](Cc1c[nH]c2ccccc12)NC(=O)[C@H](Cc1ccccc1)NC(=O)[C@H](CCC(N)=O)NC(=O)CNC(=O)[C@@H](NC(=O)[C@H](CCCNC(=N)N)NC(=O)[C@@H](N)Cc1c[nH]c2ccccc12)[C@@H](C)O)C(=O)N[C@@H](Cc1ccc(O)cc1)C(=O)O [compound 146] (H-WRTGQFWPGQPMY-OH; N-terminus and C-terminus assumed),Inhibition at 50 μM,<90%
same,Inhibition at 100 μM,<90%
CSCC[C@H](NC(=O)[C@@H]1CCCN1C(=O)[C@H](CCC(N)=O)NC(=O)CNC(=O)[C@H](CCCNC(=N)N)NC(=O)[C@H](CCCCN)NC(=O)[C@H](CC(C)C)NC(=O)[C@H](CCC(N)=O)NC(=O)CNC(=O)[C@H](CC(=O)O)NC(=O)[C@H](Cc1c[nH]cn1)NC(=O)[C@@H]1CCCN1)C(=O)N[C@@H](Cc1ccc(O)cc1)C(=O)O [compound 147] (H-PHDGQLKRGQPMY-OH; N-terminus and C-terminus assumed),Inhibition at 50 μM,<90%
same,Inhibition at 100 μM,<90%
CSCC[C@H](NC(=O)[C@@H]1CCCN1C(=O)[C@H](CCC(=O)O)NC(=O)CNC(=O)[C@@H]1CCCN1C(=O)[C@H](CCCCN)NC(=O)[C@H](CC(C)C)NC(=O)[C@H](CC(N)=O)NC(=O)[C@H](CC(C)C)NC(=O)[C@H](Cc1c[nH]c2ccccc12)NC(=O)[C@H](CCCCN)NC(=O)[C@@H]1CCCN1)C(=O)N[C@@H](Cc1ccc(O)cc1)C(=O)O [compound 148] (H-PKWLNLKPGEPMY-OH; N-terminus and C-terminus assumed),Inhibition at 50 μM,<90%
same,Inhibition at 100 μM,<90%
CSCC[C@H](NC(=O)[C@@H]1CCCN1C(=O)[C@H](CCC(N)=O)NC(=O)CNC(=O)[C@@H]1CCCN1C(=O)[C@H](CCSC)NC(=O)[C@H](CC(C)C)NC(=O)[C@H](CCCCN)NC(=O)[C@H](CC(C)C)NC(=O)[C@@H](NC(=O)[C@H](CCCNC(=N)N)NC(=O)[C@@H](N)Cc1c[nH]c2ccccc12)C(C)C)C(=O)N[C@@H](Cc1ccc(O)cc1)C(=O)O [compound 149] (H-WRVLKLMPGQPMY-OH; N-terminus and C-terminus assumed),Inhibition at 50 μM,<90%
same,Inhibition at 100 μM,<90%
